Type in all cases: cell-based
The target in assay [1] is T1, Mm_Fpr1 (Mus musculus, UniProt P33766).
T1 construct: expressed in transfected cells
T1 sequence (P33766 1-364): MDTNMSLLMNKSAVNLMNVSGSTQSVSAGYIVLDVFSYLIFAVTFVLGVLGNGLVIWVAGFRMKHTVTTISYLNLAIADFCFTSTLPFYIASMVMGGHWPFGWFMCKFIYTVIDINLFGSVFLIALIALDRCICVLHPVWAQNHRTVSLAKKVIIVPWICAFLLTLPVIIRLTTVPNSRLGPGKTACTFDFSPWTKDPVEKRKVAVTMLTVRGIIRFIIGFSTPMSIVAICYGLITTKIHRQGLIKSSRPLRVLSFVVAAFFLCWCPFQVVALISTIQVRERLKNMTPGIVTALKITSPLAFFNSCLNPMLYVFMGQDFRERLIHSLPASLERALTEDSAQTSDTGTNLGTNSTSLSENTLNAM
The assay can be described thus: BRET receptor-RLuc8 interaction with Venus-mGsi. The note with it: for Log EC50 (M): log of EC50, HEK293 transient, 10 min; for Log EC50 (M) / Emax (%): mGsi BRET, mean, ND = no interaction detected; for Emax (%): % of response to 1 μM WKYMVm. The essentials:
(§1)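 Agonist-induced BRET between C-terminal RLuc8-fused receptor and Venus-mGsi or YFP-Arrestin 3 was recorded after 10 min compound treatment at 37 °C, using coelenterazine h at 5 μM final. Acceptor/donor ratios minus untreated background gave N-BRET, fitted with a 3-parameter log(agonist)–response model.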

Assay [2] addresses T2, Mm_Fpr2 (Mus musculus, UniProt O88536).
T2 construct: expressed in transfected cells
T2 sequence (O88536 1-351): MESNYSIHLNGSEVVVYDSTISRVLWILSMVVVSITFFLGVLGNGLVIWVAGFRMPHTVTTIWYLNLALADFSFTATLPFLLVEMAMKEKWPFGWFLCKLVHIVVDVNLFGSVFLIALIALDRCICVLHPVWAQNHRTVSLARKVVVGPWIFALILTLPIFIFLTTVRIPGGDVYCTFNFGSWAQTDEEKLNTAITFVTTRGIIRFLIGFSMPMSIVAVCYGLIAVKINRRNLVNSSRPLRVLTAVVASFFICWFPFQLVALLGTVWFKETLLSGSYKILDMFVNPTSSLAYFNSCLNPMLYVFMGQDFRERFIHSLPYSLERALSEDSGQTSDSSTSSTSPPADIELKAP
The assay can be described thus: BRET receptor-RLuc8 interaction with Venus-mGsi. The note with it: for Log EC50 (M): log of EC50, HEK293 transient, 10 min; for Log EC50 (M) / Emax (%): mGsi BRET, mean, ND = no interaction detected; for Emax (%): % of response to 1 μM WKYMVm. In a few lines:
as §1

Assay [3] concerns the target T1, Mm_Fpr1. The assay can be described thus: ERK1/2 phosphorylation by Western blotting. Details: Emax: dose or concentration left out as unconfirmed. Particulars: for pEC50 / Log EC50 (M): log of EC50, phosphorylation of ERK1/2, HEK293 stable cells; for pEC50 / Log EC50 (M) / Emax (%): mean, ND = no pERK signal detected; for Emax (%): phospho-ERK, % of 1 μM WKYMVm.
Assay [4] has as its target T3, Hs_FPR1 (Homo sapiens, UniProt P21462).
T3 construct: expressed in transfected cells
T3 sequence (P21462 1-350): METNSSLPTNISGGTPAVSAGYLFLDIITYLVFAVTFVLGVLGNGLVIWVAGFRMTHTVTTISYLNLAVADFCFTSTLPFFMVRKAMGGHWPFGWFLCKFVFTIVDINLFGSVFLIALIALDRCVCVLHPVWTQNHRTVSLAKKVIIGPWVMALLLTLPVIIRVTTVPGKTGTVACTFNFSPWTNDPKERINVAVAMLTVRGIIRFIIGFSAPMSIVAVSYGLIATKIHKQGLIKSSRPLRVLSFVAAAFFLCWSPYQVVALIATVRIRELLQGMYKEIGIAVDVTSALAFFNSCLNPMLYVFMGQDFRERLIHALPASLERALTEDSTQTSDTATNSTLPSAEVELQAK
The assay can be described thus: BRET receptor-RLuc8 interaction with Arrestin 3-YFP. Particulars: for Emax (%) / Log EC50 (M): Arrestin 3 BRET, mean, ND = no interaction detected; for Emax (%): % of response to 1 μM WKYMVm; for Log EC50 (M): log of EC50, HEK293 transient, 10 min. The essentials: as §1

Assay [5] concerns the target T1, Mm_Fpr1. Described as above. The note with it: for Emax (%) / Log EC50 (M): Arrestin 3 BRET, mean, ND = no interaction detected; for Emax (%): % of response to 1 μM WKYMVm; for Log EC50 (M): log of EC50, HEK293 transient, 10 min. The essentials: as §1
Assay [6] concerns the target T2, Mm_Fpr2. The assay is described as above. The note with it: for Emax (%) / Log EC50 (M): Arrestin 3 BRET, mean, ND = no interaction detected; for Emax (%): % of response to 1 μM WKYMVm; for Log EC50 (M): log of EC50, HEK293 transient, 10 min. In a few lines:
as §1

Assay [7] deals with T3, Hs_FPR1. The assay can be described thus: Internalization of FLAG-tagged receptors by flow cytometry. Details: Emax: dose or concentration left out as unconfirmed. The note with it: for Emax: read-out: Emax (%), internalization, Mean; for agonist-induced internalization (words): Hs_FPR1, 30 min, relative to 1 μM WKYMVm. The method, then:
(§2) Internalization of FPRs was measured by flow cytometry.[30] Briefly, cells were incubated with Alexa Fluor 657 conjugated M1 antiflag antibody (Sigma-Aldrich Cat# F3040, RRID:AB_439712) for 30 minutes at 37 °C to label surface receptors. Cells were then incubated with the indicated concentration of ligand before washing in PBS/0.04% EDTA to remove any remaining surface antibody. Remaining fluorescence was then measured using flow cytometry on either a BD FACScalibur or Attune, recording 5000 gated events. […] As a control, some samples were left untreated, and “strip only” was measured as a readout of constitutive endocytosis, and this value was subtracted from the data.
(§3) All data were analyzed using GraphPad Prism using the nonlinear regression log(agonist) versus response (3 parameters) function for all assays, except binding, which was analyzed using the One site-FitlogIC50 function. Bias calculations were carried out following IUPHAR guidelines as described,[27]^,[37] and data were presented as the Δ Activity ratio (Log[EmaxB/EC50B])-(Log[EmaxA/EC50A]).

The target in assay [8] is T4, Hs_FPR2 (Homo sapiens, UniProt P25090).
T4 construct: expressed in transfected cells
T4 sequence (P25090 1-351): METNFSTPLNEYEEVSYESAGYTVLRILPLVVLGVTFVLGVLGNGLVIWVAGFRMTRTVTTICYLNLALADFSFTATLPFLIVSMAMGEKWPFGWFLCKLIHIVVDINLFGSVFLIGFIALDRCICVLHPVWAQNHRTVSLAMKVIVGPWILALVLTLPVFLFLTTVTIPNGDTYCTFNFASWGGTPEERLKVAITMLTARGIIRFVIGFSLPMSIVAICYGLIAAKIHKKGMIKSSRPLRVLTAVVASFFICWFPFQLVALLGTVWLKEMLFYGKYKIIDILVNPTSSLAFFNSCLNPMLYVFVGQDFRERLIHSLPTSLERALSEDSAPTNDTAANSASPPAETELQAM
The description is as above. The note with it: for Emax (%), internalization, Mean: % of internalization to WKYMVm (1 mM in legend, 1 μM in text), Hs_FPR2, 30 minutes; for Emax (%), internalization, Mean / Log EC50 (M), internalization, Mean: ND denotes no internalization measured; for agonist-induced internalization (words): Hs_FPR2, 30 min, relative to 1 μM WKYMVm; for Log EC50 (M), internalization, Mean: HEK293 stably expressing FLAG-Hs_FPR2, ligand 30 minutes. Details: Emax: dose or concentration left out as unconfirmed. The method, then: as §2, §3

pEC50: −log10 of the molar value. “Also recorded” adds a separate entry of the source. Where two headings read alike, the source gives them in different places. Where a SMILES comes first, the peptide text is derived from it. Where no end group is shown, it is not given here. The star is where a group is joined. For = O=C*

`CSCC[C@H](NC(=O)[C@H](Cc1ccc(O)cc1)NC(=O)[C@H](CCCCN)NC(=O)[C@@H](N)Cc1c[nH]c2ccccc12)C(=O)N[C@H](C(=O)N[C@H](CCSC)C(N)=O)C(C)C` [WKYMVm]: the Emax in assay [1] amounted to 109%; in assay [2] it was 103%; in assay [3], 102%; in assay [4], 105%; in assay [5] it was 112%; in assay [6], 101%. Further, the Emax is 106% in assay [7] and 97.5% in assay [8].
As for `CSCC[C@H](NC=O)C(=O)N[C@@H](CC(C)C)C(=O)N[C@@H](Cc1ccccc1)C(=O)N[C@@H](CCCCN)C(=O)O` [fMLFK, fMet-Leu-Phe-Lys] (For-MLFK-OH), the pEC50 in assay [1] is 5.02; in assay [2], 4.52; in assay [3], 6.07; in assay [4], 7.45; in assay [5], 5.14; in assay [6], 4.79. For the same compound, the pEC50 was 7.79 in assay [7] and 4.48 in assay [8]. In addition, the Emax in assay [1] stood at 62.9%; in assay [2], 82.7%; in assay [3], 140%; in assay [4], 97.4%; in assay [5], 95.2%; in assay [6], 72.5%. Further, the Emax turned out to be 79.3% in assay [7] and 99.9% in assay [8].
Take `Cc1cccc(-c2oc(C)nc2C(=O)Nc2cnn(Cc3nc(C(C)(F)F)co3)n2)c1` [ACT-389949]: the “Log EC50 (M)” value is reported as −5.74 M in assay [1]; −7.57 M in assay [2]; −6.383 M in assay [3]; −6.00 M in assay [4]; −5.98 M in assay [5]; −7.66 M in assay [6]. For the same compound, the “Emax (%)” value in assay [1] was found to be 49.76%; in assay [2], 116.06%; in assay [3], 99.504%; in assay [4], 86.48%; in assay [5], 52.62%; in assay [6] it was 95.34%. The “agonist-induced internalization (words)” value in assay [7] is reported as “only at 10 μM”; in assay [8] it was “full agonist”. The “Emax (%), internalization, Mean” value in assay [8] was found to be 95.31%. Further, the “Log EC50 (M), internalization, Mean” value in assay [8] is reported as −7.975 M.
With `CCCCOc1ccc(C(=O)NN2C(=O)c3ccccc3NC2c2ccc(OC)cc2)cc1` (stereo not drawn) [QuinC1], the “Log EC50 (M)” value is given as −7.49 M in assay [1]; −6.35 M in assay [2]; −6.945 M in assay [3]; −5.35 M in assay [4]; −6.33 M in assay [5]; −6.40 M in assay [6]. Also, the “Emax (%)” value in assay [1] is 30.89%; in assay [2] it was 70.36%; in assay [3], 150.3%; in assay [4], 17.25%; in assay [5], 49.50%; in assay [6], 68.75%. Further, the “agonist-induced internalization (words)” value in assay [7] and in assay [8] was “partial agonists” in each case. Further, the “Emax (%), internalization, Mean” value in assay [8] is 81.29%. Further, the “Log EC50 (M), internalization, Mean” value in assay [8] was −5.809 M.
As to LESIFRSLLFRVM [MMK1], the “agonist-induced internalization (words)” value in assay [7] is recorded as “failed to show appreciable internalization”. In addition, the “agonist-induced internalization (words)” value in assay [7] (listed as MMK-1) is “unable to induce internalization”. In assay [8], the maximal response (Emax) is 62.9%; the “agonist-induced internalization (words)” value is on record as “partial agonism”; the “Log EC50 (M), internalization, Mean” value is given as −7.216 M.
`COc1cc(F)c([C@@H]2CNC(=O)[C@H]2NC(=O)Nc2ccccc2)c(F)c1` [BMS-986235]: the pEC50 in assay [1] is 5.85; in assay [2], 6.78; in assay [3], 6.01; in assay [4], 5.64; in assay [5] it was 8.17; in assay [6], 6.82. Also, the Emax amounted to 21.7% in assay [1]; 104% in assay [2]; 114% in assay [3]; 5.54% in assay [4]; 18.2% in assay [5]; 100% in assay [6]. The Emax in assay [8] came to 112%. For the same compound, in assay [5] (Mm_Fpr1, mGsi versus Arrestin3 bias comparison), the “efficacy, % of WKYMVm” value is less than 20%. For the same compound, the “agonist-induced internalization (words)” value in assay [7] is given as “failed to show appreciable internalization; also recorded: unable to induce any measurable internalization”; in assay [8], “robust internalization”. In addition, the EC50 in assay [8] (read-out: Log EC50 (M), internalization, Mean (converted)) is 9.1e-07 M.
